Experimental data published in PMC10574094, “Discovery of a SHP2 Degrader with In Vivo Anti-Tumor Activity” (Molecules, 2023).

Tests used:
[1] = molecular target: T1, SHP2 (Homo sapiens, UniProt Q06124); design: endogenous in cells; host or cells: KYSE-520; details: cited from earlier work
T1 sequence (Q06124 1-593): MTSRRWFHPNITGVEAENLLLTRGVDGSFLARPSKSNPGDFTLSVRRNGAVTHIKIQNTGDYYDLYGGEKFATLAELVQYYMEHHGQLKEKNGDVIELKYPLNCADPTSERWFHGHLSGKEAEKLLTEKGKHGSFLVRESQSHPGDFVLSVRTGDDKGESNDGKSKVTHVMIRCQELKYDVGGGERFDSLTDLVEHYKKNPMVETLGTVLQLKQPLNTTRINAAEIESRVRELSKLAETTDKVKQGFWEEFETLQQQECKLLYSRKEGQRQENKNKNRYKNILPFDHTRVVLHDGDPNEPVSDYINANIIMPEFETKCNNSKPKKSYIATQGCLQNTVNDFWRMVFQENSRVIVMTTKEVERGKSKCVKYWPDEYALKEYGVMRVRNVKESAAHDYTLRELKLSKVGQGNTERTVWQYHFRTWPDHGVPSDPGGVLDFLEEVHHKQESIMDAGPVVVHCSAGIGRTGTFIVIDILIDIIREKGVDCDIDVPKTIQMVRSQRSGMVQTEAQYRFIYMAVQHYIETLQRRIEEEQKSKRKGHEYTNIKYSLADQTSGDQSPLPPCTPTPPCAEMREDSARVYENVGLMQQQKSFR

[2] = test system: pERK1/2; design: method as in PMID 32910655; details: cited from earlier work
[3] = molecular target: T1, SHP2; test: SHP2 degradation by Western blotting in HEK293 cells; assay type: cell-based; design: endogenous in cells; host or cells: HEK293; details: HEK293, 16 h, 250 nM P9 in combination with 1 µM 3, 10 µM MG132, 1 µM MLN4924, 40 µM VHL-2 or 40 µM Lenalidomide
Experimental: HEK293, SKBR3, U2OS, MCF7 and A549 cells were grown in DMEM supplemented with 10% FBS, penicillin (50 units/mL), and streptomycin (50 μg/mL) in a 37 °C incubator containing 5% CO2. […] For western-blot analysis, protein samples were separated by SDS-PAGE, transferred to nitrocellulose membranes, and incubated overnight at 4 °C with corresponding primary antibodies diluted in 5% BSA in phosphate-buffered saline Tween (PBST). SuperSignal™ West Pico PLUS (PI34580; Thermo Scientific) was used to visualize the antibodies in the bioanalytical imaging system (Azure Biosystems c500). […] Anti-PTP1B (ab244207) antibody was purchased from Abcam. For colony formation assay, a total of approximately 200–500 cells were seeded to each well in a 12-well plate.
Supplemental Figures, Schemes, and Tables:
Figure S1. Western blots of degradation assay for PROTAC screening. (A) Degradation assay of
compo un ds i n Table 1 at 1 μM fo r 16 hours in H EK29 3 cells. (B) Degradation assay of compounds in Table
1 at 10 μM for 16 hours in HEK293 cells. (C) Degradation assay of compounds in Table 2 at 1 μM for 16

Structure (SMILES) | IC50 [1] [nM] | IC50 [2] [nM] | effect on P9-induced SHP2 degradation [3]
CCCCC1(CN)CCN(c2cnc(Sc3ccnc(N)c3Cl)c(N)n2)CC1 [compound 2] | 17 | – | –
CC1(CN)CCN(c2cnc(Sc3cccc(Cl)c3Cl)c(N)n2)CC1 [compound 3, reference compound] | – | 88 | prohibited P9-induced SHP2 degradation
